Measured values taken from the Deep4Chem optical property database.

Assay: solvent given as SMILES
Conditions: in C1CCCCC1

| emission maximum | SMILES |
| --- | --- |
| 363 nm | CCCC1(CCC)c2cc(-c3cccc(C)c3)ccc2-c2ccc(-c3cccc(C)c3)cc21 |
| 431 nm | Cc1cc(C)c(B2c3cc(C(C)(C)C)ccc3-c3cccc4cc(C(C)(C)C)cc2c34)c(C)c1 |

Same assay, conditions: in C1CCOC1

| emission maximum | SMILES |
| --- | --- |
| 443 nm | COc1cc(-c2nc3c4cccnc4c4ncccc4c3[nH]2)c(OC)cc1/C=C/c1nc2ccccc2[nH]1 |
| 466 nm | COc1cc2c(cc1-c1ccc(Cl)cc1)Cc1c3c(c4c(c1-2)-c1cc(OC)c(-c2ccc(Cl)cc2)cc1C4)C(=O)N(CCC(C)C)C3=O |
| 395 nm | COc1ccc(C(=Cc2ccc(C#N)cc2)c2ccc(OC)cc2)cc1 |
| 383 nm | O=Cc1ccc(C=C(c2ccccc2)c2ccccc2)cc1 |
| 534 nm | COc1ccc2cc(-c3ccc([N+](=O)[O-])cc3)ccc2c1 |

Second part, the compound before the results:

| SMILES | emission maximum |
| --- | --- |
| O=Cc1c(O)c(-c2nc3ccccc3s2)cc2ccccc12 | 497 nm |
| CCCCCCc1cc2c(s1)-c1sc(CCCCCC)cc1P(c1ccccc1)(c1ccccc1)=[O+][B-]2(c1c(C)cc(C)cc1C)c1c(C)cc(C)cc1C | 536 nm |
| CCC1(CC)c2ccccc2-c2c1c1c(c3c2C(CC)(CC)c2cc(/C=C/c4cccs4)ccc2-3)C(CC)(CC)c2cc(/C=C/c3cccs3)ccc2-1 | 397 nm |
| CCN(CC)c1ccc2cc(/C=C/c3cccc[n+]3CCCS(=O)(=O)[O-])c(=O)oc2c1 | 641 nm |
| c1cc2ccc1-c1ccc(cc1)-c1ccc(s1)-c1ccc(cc1)-c1ccc(cc1)-c1ccc(s1)-c1ccc(cc1)-c1ccc(cc1)-c1ccc(s1)-c1ccc(cc1)-c1ccc(cc1)-c1ccc-2s1 | 472 nm |
| CCC1(CC)c2ccccc2-c2c1c1c(c3c2C(CC)(CC)c2cc(-c4cccs4)ccc2-3)C(CC)(CC)c2cc(N(c3ccccc3)c3ccccc3)ccc2-1 | 422 nm |
| COc1ccc2c(=O)c3c([nH]c2c1)-c1cc(Cl)ccc1NC3(C)C | 489 nm |

Same assay, conditions: in C1COCCO1

| emission maximum | SMILES |
| --- | --- |
| 478 nm | COC(=O)c1ccc(/C=C2\N=C(c3ccc(OC)c(OC)c3)NC2=O)cc1 |

Same assay, conditions: in CC#N

| emission maximum | SMILES |
| --- | --- |
| 422 nm | Cc1ccc(-c2ccc(/C=C/c3cccs3)cn2)nc1 |
| 457 nm | COc1cc(-c2nc3c4cccnc4c4ncccc4c3[nH]2)c(OC)cc1/C=C/c1nc2ccccc2[nH]1 |
| 478 nm | COC(=O)c1cc(=O)n(C)c2cc(-c3ccc4c(c3)OCCO4)sc12 |
| 380 nm | COc1ccc(C#Cc2ccccc2C#Cc2ccc(OC)cc2)cc1 |
| 330 nm | C/C=C/c1ccc(OC)cc1 |
| 378 nm | COc1ccc(-c2nc3c([nH]2)=C2C=C(Cl)S[C@@]2(C)[C@]2(C)SC(Cl)=CC=32)cc1 |
| 647 nm | COc1ccc2cc(-c3ccc([N+](=O)[O-])cc3)ccc2c1 |

Continued, compound first:

| SMILES | emission maximum |
| --- | --- |
| O=Cc1c(O)c(-c2nc3ccccc3s2)cc2ccccc12 | 505 nm |
| CCN(CC)c1ccc2cc(/C=C/c3cccc[n+]3CCCS(=O)(=O)[O-])c(=O)oc2c1 | 634 nm |
| COc1ccc2c(=O)c3c([nH]c2c1)-c1cc(Cl)ccc1NC3(C)C | 512 nm |

Same assay, conditions: in CC(C)=O

| SMILES | emission maximum |
| --- | --- |
| O=Cc1c(O)c(-c2nc3ccccc3s2)cc2ccccc12 | 507 nm |
| CCN(CC)c1ccc2cc(/C=C/c3cccc[n+]3CCCS(=O)(=O)[O-])c(=O)oc2c1 | 639 nm |

Same assay, conditions: in CCCCCC

| emission maximum | SMILES |
| --- | --- |
| 328 nm | C/C=C/c1ccc(OC)cc1 |
| 654 nm | CC(C)[Si](C#Cc1c2cc3ccccc3cc2c(C#C[Si](C(C)C)(C(C)C)C(C)C)c2nc3c(ccc4cc5ccccc5cc43)nc12)(C(C)C)C(C)C |

Same assay, conditions: in CCCCO

| SMILES | emission maximum |
| --- | --- |
| COc1ccc2c(=O)c3c([nH]c2c1)-c1cc(Cl)ccc1NC3(C)C | 525 nm |

Same assay, conditions: in CCCO

| SMILES | emission maximum |
| --- | --- |
| COc1ccc2c(=O)c3c([nH]c2c1)-c1cc(Cl)ccc1NC3(C)C | 525 nm |

Same assay, conditions: in CCO

| SMILES | emission maximum |
| --- | --- |
| O=Cc1c(O)c(-c2nc3ccccc3s2)cc2ccccc12 | 503 nm |
| Cc1c(C)n2c(COC(=O)c3ccc(F)cc3)c(C)c(=O)n2c1=O | 460 nm |
| c1ccc(-c2nnc(-c3ccc(-n4c5ccccc5c5ccccc54)cc3)o2)cc1 | 440 nm |
| COc1ccc2c(=O)c3c([nH]c2c1)-c1cc(Cl)ccc1NC3(C)C | 525 nm |

Same assay, conditions: in CCOC(C)=O

| SMILES | emission maximum |
| --- | --- |
| O=Cc1c(O)c(-c2nc3ccccc3s2)cc2ccccc12 | 501 nm |
| COc1ccc2c(=O)c3c([nH]c2c1)-c1cc(Cl)ccc1NC3(C)C | 497 nm |

Same assay, conditions: in CN(C)C=O

| SMILES | emission maximum |
| --- | --- |
| O=Cc1c(O)c(-c2nc3ccccc3s2)cc2ccccc12 | 538 nm |
| COc1ccc2c(=O)c3c([nH]c2c1)-c1cc(Cl)ccc1NC3(C)C | 509 nm |

Same assay, conditions: in CO

| emission maximum | SMILES |
| --- | --- |
| 461 nm | COc1cc(-c2nc3c4cccnc4c4ncccc4c3[nH]2)c(OC)cc1/C=C/c1nc2ccccc2[nH]1 |
| 817 nm | CC1(C)C(/C=C/C=C/C=C/C=C2/N(CCC(=O)O)c3ccc4ccccc4c3C2(C)C)=[N+](CCC(=O)O)c2ccc3ccccc3c21 |
| 400 nm | Oc1ccc(-c2nc(-c3ccccc3)c(-c3ccccc3)[nH]2)cc1 |

Second part, the compound before the results:

| SMILES | emission maximum |
| --- | --- |
| O=Cc1c(O)c(-c2nc3ccccc3s2)cc2ccccc12 | 525 nm |
| COc1ccc2c(=O)c3c([nH]c2c1)-c1cc(Cl)ccc1NC3(C)C | 532 nm |

Same assay, conditions: in CS(C)=O

| SMILES | emission maximum |
| --- | --- |
| CCN(CC)c1ccc2cc(/C=C/c3cccc[n+]3CCCS(=O)(=O)[O-])c(=O)oc2c1 | 642 nm |
| COc1ccc2c(=O)c3c([nH]c2c1)-c1cc(Cl)ccc1NC3(C)C | 511 nm |
| O=C(O)COc1cccc(-c2c3nc(cc4ccc([nH]4)c(-c4cccc(OCC(=O)O)c4)c4nc(cc5ccc2[nH]5)CC4)CC3)c1 | 738 nm |
| Nc1ccc2c(c1)oc(=O)c1c(=O)oc3ccccc3c12 | 534 nm |

Same assay, conditions: in Cc1ccccc1

| SMILES | emission maximum |
| --- | --- |
| O=Cc1c(O)c(-c2nc3ccccc3s2)cc2ccccc12 | 509 nm |
| c1ccc(-c2nc(-c3ccc(-n4c5ccccc5c5ccc6c(c7ccccc7n6-c6ccccc6)c54)cc3)c3sc4ccccc4c3n2)cc1 | 465.01 nm |
| Cc1ccc2c(c1)C(c1ccccc1)(c1ccccc1)c1cc(C)ccc1N2c1cc(C(C)C)c(B2c3ccccc3Sc3ccccc32)c(C(C)C)c1 | 487 nm |
| O=C1c2ccc(N(c3ccc(-c4ccccc4)cc3)c3ccc(-c4ccccc4)cc3)cc2C(=O)c2ccc(N(c3ccc(-c4ccccc4)cc3)c3ccc(-c4ccccc4)cc3)cc21 | 629 nm |
| CCN(CC)c1ccc2cc(/C=C/c3cccc[n+]3CCCS(=O)(=O)[O-])c(=O)oc2c1 | 641 nm |
| O=C(c1ccc(-n2c3ccc(-c4ccccc4)cc3c3cc(-c4ccccc4)ccc32)cc1)c1ccc(-n2c3ccc(-c4ccccc4)cc3c3cc(-c4ccccc4)ccc32)cc1 | 438 nm |
| c1ccc(-c2nnc(-c3ccc(-n4c5ccccc5c5ccccc54)cc3)o2)cc1 | 387 nm |
| COc1ccc(N2c3ccc4ccccc4c3-c3c4ccccc4cc[n+]3[B-]2(c2ccccc2)c2ccccc2)cc1 | 641 nm |
| N#Cc1cc(-c2cc(C#N)c(-n3c4ccccc4c4ccccc43)cc2-n2c3ccccc3c3ccccc32)c(-n2c3ccccc3c3ccccc32)cc1-n1c2ccccc2c2ccccc21 | 453 nm |
| COc1ccc2c(=O)c3c([nH]c2c1)-c1cc(Cl)ccc1NC3(C)C | 477 nm |

Same assay, conditions: in ClC(Cl)(Cl)Cl

| SMILES | emission maximum |
| --- | --- |
| COc1ccc2c(=O)c3c([nH]c2c1)-c1cc(Cl)ccc1NC3(C)C | 469 nm |

Same assay, conditions: in ClC(Cl)Cl

| emission maximum | SMILES |
| --- | --- |
| 488 nm | CN(C)c1ccc(-c2ccc(-c3ncc4ccccn34)cc2)cc1 |
| 524 nm | CN(C)c1ccc(-c2nc(-c3ccccc3)n3ccccc23)cc1 |
| 573 nm | COc1ccc2cc(-c3ccc([N+](=O)[O-])cc3)ccc2c1 |

More lines, now with the values behind:

| SMILES | emission maximum |
| --- | --- |
| O=Cc1c(O)c(-c2nc3ccccc3s2)cc2ccccc12 | 505 nm |
| c1cc2ccc3[se]c4ccc5cccc6c(c1)c2c3c4c56 | 424 nm |

Same assay, conditions: in ClCCl

| emission maximum | SMILES |
| --- | --- |
| 491 nm | COC(=O)C1=C(C(=O)OC)C2(c3ccccc3-c3c(Br)cc(Br)cc32)C2(/C=C/c3ccccc3)c3cc(OC)c(OC)cc3CCN12 (stereo not given) |
| 422 nm | Cc1cn2cc(-c3ccccc3)[n-][n+]2c1 |
| 452 nm | COc1cc(-c2nc3c4cccnc4c4ncccc4c3[nH]2)c(OC)cc1/C=C/c1nc2ccccc2[nH]1 |
| 380 nm | COc1cccc2cc(C)c3c4ccccc4n(C)c3c12 |
| 479 nm | COc1ccc(C2=CC(c3ccccc3)=C(c3ccccc3)C2)c2ccccc12 |
| 473 nm | COC(=O)c1cc(=O)n(C)c2cc(-c3ccc4c(c3)OCCO4)sc12 |
| 346 nm | Cc1cc2sccc2c2[nH]c3ccccc3c12 |
| 498 nm | Nc1ccc2c(c1)oc(=O)c1c(=O)oc3ccccc3c12 |
| 591 nm | COc1ccc2cc(-c3ccc([N+](=O)[O-])cc3)ccc2c1 |

More lines, now with the values behind:

| SMILES | emission maximum |
| --- | --- |
| O=Cc1c(O)c(-c2nc3ccccc3s2)cc2ccccc12 | 505 nm |
| N#Cc1cccc(-c2cccc(-c3nc(-c4cccc(-c5cccc(C#N)c5)c4)nc(-c4cccc(-c5cccc(C#N)c5)c4)n3)c2)c1 | 420 nm |
| CCCCN(CCCC)c1ccc2c#cc3cc4c#cc5ccc(C(F)(F)F)cc5c#cc#cc5cc(N(CCCC)CCCC)ccc5c#cc4cc3c#cc3ccc(C(F)(F)F)cc3c#cc#cc2c1 | 555 nm |
| COc1ccc2c(=O)c3c([nH]c2c1)-c1cc(Cl)ccc1NC3(C)C | 491 nm |
| CCCCOc1c(OC)cc2cc(OC)c(OCCCC)c3c4c(OCCCC)c(OC)cc5cc(OC)c(OCCCC)c(c1c23)c54 | 474 nm |

Same assay, conditions: in O

| SMILES | emission maximum |
| --- | --- |
| CCN(CC)c1ccc2cc(/C=C/c3cccc[n+]3CCCS(=O)(=O)[O-])c(=O)oc2c1 | 627 nm |
| COc1ccc2c(=O)c3c([nH]c2c1)-c1cc(Cl)ccc1NC3(C)C | 555 nm |

Same assay, conditions: in O=P(c1ccccc1)(c1ccccc1)c1ccc2oc3ccc(P(=O)(c4ccccc4)c4ccccc4)cc3c2c1

| SMILES | emission maximum |
| --- | --- |
| Cc1ccc2c(c1)C(c1ccccc1)(c1ccccc1)c1cc(C)ccc1N2c1cc(C(C)C)c(B2c3ccccc3Sc3ccccc32)c(C(C)C)c1 | 485 nm |

Same assay, conditions: in OCC(O)CO

| SMILES | emission maximum |
| --- | --- |
| CCN(CC)c1ccc2cc(/C=C/c3cccc[n+]3CCCS(=O)(=O)[O-])c(=O)oc2c1 | 625 nm |

Same assay, conditions: in c1ccc2c(c1)c1ccccc1n2-c1ccc(-c2ccc(-n3c4ccccc4c4ccccc43)cc2)cc1

| SMILES | emission maximum |
| --- | --- |
| O=C1c2ccc(N(c3ccc(-c4ccccc4)cc3)c3ccc(-c4ccccc4)cc3)cc2C(=O)c2ccc(N(c3ccc(-c4ccccc4)cc3)c3ccc(-c4ccccc4)cc3)cc21 | 603 nm |

Same assay, conditions: in c1ccccc1

| SMILES | emission maximum |
| --- | --- |
| CCCCN(CCCC)c1ccc2c#cc3cc4c#cc5ccc(C(F)(F)F)cc5c#cc#cc5cc(N(CCCC)CCCC)ccc5c#cc4cc3c#cc3ccc(C(F)(F)F)cc3c#cc#cc2c1 | 521 nm |
| COc1ccc2c(=O)c3c([nH]c2c1)-c1cc(Cl)ccc1NC3(C)C | 478 nm |
